# Reference: BindingDB's records for doi:10.1002/cbic.201200206 (Frederick National Laboratory For Cancer Research, 2012)
# Target: Serine/threonine-protein kinase PLK1 (Homo sapiens, UniProt P53350)
# Experiment: Binding Assay
# Text: […] PDB fluorescence polarization competition binding assay using Plk.
# Serine/threonine-protein kinase PLK1, sequence (P53350 whole entry): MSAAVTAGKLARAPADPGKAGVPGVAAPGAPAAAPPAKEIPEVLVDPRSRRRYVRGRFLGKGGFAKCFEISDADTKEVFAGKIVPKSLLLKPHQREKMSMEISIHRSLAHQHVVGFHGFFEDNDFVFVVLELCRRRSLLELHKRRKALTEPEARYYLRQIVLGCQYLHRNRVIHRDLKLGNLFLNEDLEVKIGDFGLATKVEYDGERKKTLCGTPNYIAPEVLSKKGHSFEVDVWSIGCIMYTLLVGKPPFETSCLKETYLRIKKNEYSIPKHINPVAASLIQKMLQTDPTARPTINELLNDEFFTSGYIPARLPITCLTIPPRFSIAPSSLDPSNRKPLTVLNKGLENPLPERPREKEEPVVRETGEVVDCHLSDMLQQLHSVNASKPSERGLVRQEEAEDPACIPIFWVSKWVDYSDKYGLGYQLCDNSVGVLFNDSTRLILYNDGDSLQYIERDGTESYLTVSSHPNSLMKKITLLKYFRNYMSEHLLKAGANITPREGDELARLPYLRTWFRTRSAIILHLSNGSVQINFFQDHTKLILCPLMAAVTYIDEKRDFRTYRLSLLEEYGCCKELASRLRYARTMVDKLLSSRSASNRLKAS
structure (smiles),measurement,value
"CC(=O)N(CCCCc1ccccc1)CC(=O)N[C@H](CC(C)C)C(=O)N[C@H](Cc1cnc[nH]1)C(=O)N[C@H](CO)C(=O)N[C@@H](C(N)=O)[C@@H](C)CP(=O)(O)O [Peptide-peptoid hybrid, 13]",IC50,71 nM
